From PubChem BioAssay (NCI)
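Cultured in 96-well plates, cells were exposed to test compound for 48 hours across five concentrations. GI50: concentration for 50% inhibition of growth. TGI is the concentration that stops growth completely.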

Experiments:
Assay in all cases: NCI anticancer screen, dose series, 48 h
BT-549 breast = tested on: BT-549 breast
DU-145 prostate = tested on: DU-145 prostate
HS 578T breast = tested on: HS 578T breast
MDA-MB-231 breast = tested on: MDA-MB-231 breast
MDA-MB-435 = tested on: MDA-MB-435
NCI/ADR-RES ovarian = tested on: NCI/ADR-RES ovarian

SMILES | GI50 (BT-549 breast) [µM] | TGI (BT-549 breast) [µM] | GI50 (DU-145 prostate) [µM] | TGI (DU-145 prostate) [µM] | GI50 (HS 578T breast) [µM] | TGI (HS 578T breast) [µM] | GI50 (MDA-MB-231 breast) [µM] | TGI (MDA-MB-231 breast) [µM] | GI50 (MDA-MB-435) [µM] | TGI (MDA-MB-435) [µM] | GI50 (NCI/ADR-RES ovarian) [µM] | TGI (NCI/ADR-RES ovarian) [µM]
COC1=C(C)C(=O)c2c(c(CCCl)c3n2CCC3O)C1=O (stereo not drawn) | 0.247 | 1.09 | 0.039 | 1.9 | 1.06 | 6.65 | 21.8 | 83 | 1.24 | 2.79 | 0.872 | 7.61
COc1cc(-c2cc(-c3ccc(Nc4ccnc5cc(Cl)ccc45)cc3)nc(N3CCOCC3)n2)cc(OC)c1OC | 2.57 | 7.19 |  |  | 2.25 | 5.35 | 1.81 | 4 | 1.75 | 3.48 | 2.3 | 7.26
COC(=O)C1OC2(CCCC3CC32)O[C@H]1C(=O)OC (stereo partly drawn) |  | > 100 |  | > 100 |  | > 100 |  | > 100 |  | > 100 |  | > 100
Cc1cn(C2C=CC(CO)O2)c(=O)[nH]c1=O (stereo not drawn) |  | > 1000 |  | > 1000 |  | > 1000 |  | > 1000 |  | > 1000 |  | > 1000
Cc1ccc(/C=C2\CN(C(=O)C(Cl)Cl)C/C(=C\c3ccc(C)cc3)C2=O)cc1 |  |  | 0.326 | 1.28 | 0.343 | 3.71 | 0.337 | 1.57 | 0.197 | 0.408 | 0.341 | 
COc1ccc2c(C3(c4cn(C)c5cc(OC)ccc45)C(=O)Nc4ccc(Cl)cc43)cn(C)c2c1 | 5.26 | 83.4 | 4.84 | > 100 | 3.5 | 87.9 | 1.53 | 5.1 | 2.51 | 7.77 | 3.9 | > 100
COc1ccccc1C1=C(Nc2ccccc2)C(=O)NC1=O | > 25 | > 25 | > 25 | > 25 | 6.25 | > 25 | > 25 | > 25 | > 25 | > 25 | > 25 | > 25
N[C@@H]1C(=O)N2C(C(=O)OC(c3ccccc3)c3ccccc3)=C(CCl)CS[C@H]12 | 25.4 | 62.8 | 15 | > 100 | 46.8 | > 100 | 25.2 | 63.1 | 35.1 | > 100 | 38.2 | > 100
Nc1cc(O)ccc1N=Nc1ccc(-c2nc3ccccc3[nH]2)cc1 | > 100 | > 100 | > 100 | > 100 | 72.1 | > 100 | 68.7 | > 100 | 17.1 | 73.5 | > 100 | > 100
O=C(CN1CCN(c2cc3c(cc2F)c(=O)c(C(=O)O)cn3C2CC2)CC1)Nc1nc(-c2ccc(Cl)cc2)cs1 | 3.85 | 60.3 | 4.03 | 28.4 | 7.19 | 73.7 | 5.09 | 61 | 3.85 | 94 | 5.62 | > 100
